Structures can show the parent of a compound that is named as a salt.
What was measured:
[1] = background statement on known inducers; cited from earlier work
FM-3A cells = assay: Growth inhibition of FM-3A tumor cells co-cultured with macrophages from Ge treated mice; assay type: cell-based; conditions: 48 hours
Description: It is known that interferon has the ability to convert a standing macrophage into a tumoricidal macrophage, deemed activated macrophage (A-M.phi.), either in vivo or in vitro. Since the Ge induced the formation of immune interferon in vivo, it was expected that A-M: would be induced in the Ge treated animal.
Peritoneal exudate cells obtained from mice 72 hours after treatment with a 300 mg/kg dose of Ge were cultured for 20 minutes in a petri dish utilizing RPMI-1640 medium supplemented with 10% fetal calf serum. Cells adhering to the petri dish, obtained by washing with the same culture medium, were separately co-cultured with FM-3A cells as the target tumor cells, in a ratio of 10:1. FM-3A cells were cultured singly, or with macrophages derived from normal mice, as the control. In each run, the growth of FM-3A cells was monitored. A determination of the number of FM-3A cells was carried out per the dye exclusion test using Trypan-Blue. […] Thus, it is apparent that Ge induces the formation of A-M: in live mice.

MEP-II tumor cells = assay: Anti-tumor effect of oral Ge in MEP-II tumor bearing mice; assay type: in vivo, DDI mice; conditions: 100 and 300 mg/kg oral, once daily, seven days
Description: 4×10^3 MEP-II tumor cells were transplanted intraperitoneally in DDI mice as described above. Twenty-four hours later, Ge was orally administered, once daily for seven consecutive days at a daily dosage of 100 or 300 mg/kg to ascertain any anti-tumor effect. In a control group, 0.2 ml of physiological saline solution was orally administered, also once daily for seven days.

interferon = assay: Interferon induction in healthy volunteers; assay type: in vivo; conditions: human
Description: Capsules of Ge were orally administered to eight healthy volunteers, 21 to 23 years old. The dose administered to one group (two men and two women) was 75 mg/kg and that administrated to the other group (two men and two women) was 25 mg/kg. Serum samples were collected at predetermined intervals, the interferon titers were determined, and the results reflected in FIGS. 4 and 5 were obtained. […] The reported results thus evidence that Ge induces A-M.phi. in humans as well as in mice.

[2] = system: vesicular stomatitis virus (VSV) in L-1D cells; assay type: cell-based
[3] = system: Ehrlich ascites tumor cells; assay: Anti-tumor activity of peritoneal exudate cells from Ge treated mice on Ehrlich ascites tumor bearing mice; assay type: in vivo, DDI mice; conditions: peritoneal exudate cells from mice given 300 mg/kg Ge, six days i.p. (FIG. 3)
Description: An anti-tumor activity test of peritoneal exudate cells obtained from mice treated with Ge in a dosage amount of 300 mg/kg was conducted on Ehrlich ascites tumor bearing mice.
1×10^5 cells/mouse of Ehrlich ascites tumor cells were transplanted into the peritoneal cavity of DDI mice. Twenty-four hours later, these mice were intraperitoneally supplied with 5×10^3 peritoneal exudate cells obtained from mice treated with Ge once daily for six consecutive days. Peritoneal exudate cells obtained from saline injected mice were likewise supplied to tumor bearing mice as a control.

[4] = system: vesicular stomatitis virus (VSV) in L-1D cells; assay type: cell-based; remark: listed apart in the source
[5] = system: vesicular stomatitis virus (VSV) in human embryonic lung cells; assay type: cell-based; conditions: human serum, 75 mg/kg oral
rats = assay: Chronic toxicity test in rats, oral, six months; conditions: six months, 30, 300 or 3000 mg/kg per day
[6] = Acute toxicity (LD50) in mice; conditions: mouse, in vivo
dogs = assay: Chronic toxicity in dogs, intravenous, six months; conditions: 500 mg/kg per day
[7] = Acute toxicity (LD50) in rats; conditions: rat, in vivo
[8] = intravenous injection, larger than any physically practicable maximum amount

Compound: CCCCCCCCCCCCCCCCCCN(CCCCCCCCCCCCCCCCCC)CCCN(CCO)CCO [CP-20961]
- adverse side effects [1]: one or more adverse side effects

Compound: O=C(O)C[CH2][Ge](=[O])[O][Ge](=[O])[CH2]CC(=O)O [Ge]
- growth of FM-3A cells (in words) (FM-3A cells): prominently inhibited
- anti-tumor activity (in words) (MEP-II tumor cells): both dosage amounts of Ge exhibited anti-tumor activity
- production of interferon (interferon; 25 mg/kg oral capsules (FIGS. 4 and 5)): production of interferon was observed, although the level was lower
- production of interferon (interferon; 75 mg/kg oral capsules (FIGS. 4 and 5)): significant production of interferon was observed in each case
- stability of induced factor to heat and acid (in words) ([2]; mouse serum, 56° C. one hour, acidification to pH 2.0): unstable to thermal treatment at 56 °C for one hour and also to acidification to pH 2.0
- trypsin lability of induced factor (in words) ([2]; mouse serum, trypsin 37° C., 3 hours): trypsin labile
- type of interferon induced ([2]; mouse serum, from thermal and acid treatments): immune (type II) interferon
- anti-tumor activity of macrophage activated by Ge treatment (in words) [3]: marked anti-tumor activity
- viral infection inhibitory activity in serum ([4]; mice, 300 mg/kg oral, 25 hours after administration (FIG. 1)): viral infection inhibitory activity was detected
- dose dependency of viral infection inhibitory activity ([4]; mice, oral, varied doses (FIG. 2)): dose dependent
- species specificity of induced viral infection inhibitory factor ([4]; mouse and human sera compared on L-1D, human embryonic lung and chicken embryonic cells): species specific
- antiviral activity of induced agent, L-1D cells (in words) ([4]; mouse serum, 300 mg/kg oral): displayed resistance to viral infection only in the L-1D cells
- antiviral activity of induced agent, human cells (in words) [5]: displayed antiviral activity only in human cells

Compound: O=C(O)C[CH2][Ge](=[O])[O][Ge](=[O])[CH2]CC(=O)O [carboxyethyl germanium sesquioxide]
- death in chronic toxicity test (rats): no rat died
- pathological disorder in chronic toxicity test (rats): no pathological disorder was observed
- LD50 [6, 8]: > 1000 mg/kg
- LD50 ([6]; oral): > 6300 mg/kg
- toxicity (dogs): no toxicity was found
- LD50 [7, 8]: > 1000 mg/kg
- LD50 ([7]; oral): > 10000 mg/kg

Compound: CCN(CC)CCOc1ccc2c(c1)C(=O)c1cc(OCCN(CC)CC)ccc1-2 [tilorone hydrochloride]
- adverse side effects [1]: one or more adverse side effects

Compound: double-stranded complex polyriboinosinic acid and polyribocytidylic acid [Poly 1-C, reference compound]
- Interferon Titer ([2]; pH 2): 640
- Remaining amount of titer ([2]; pH 2): 100%

— patent US4473581A (priority 1979, dated 1984)
